From paper PMC11606603, “The membrane domains of mammalian adenylyl cyclases are lipid receptors” (eLife, 2024)

Biological target: T1, mAC7 (Homo sapiens, UniProt P51828)
T1 construct: Human mAC genes were from GenScript and fitted with a C-terminal FLAG-tag; FLAG (C); made in house; host or cells: HEK293, permanently transfected; membrane preparation
Test: AC assay, Gsα-stimulated mAC7 in membranes from transfected HEK293 cells
Assay type: biochemical
In short: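 Adenylyl cyclase activity was measured in 100,000 × g membrane fractions prepared from HEK293 cells permanently transfected with C-terminally FLAG-tagged human AC isoforms. Assays contained 1 mM ATP and 2 mM MgCl2 with an ATP-regenerating system at pH 7.5.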

T1 sequence (P51828 whole entry): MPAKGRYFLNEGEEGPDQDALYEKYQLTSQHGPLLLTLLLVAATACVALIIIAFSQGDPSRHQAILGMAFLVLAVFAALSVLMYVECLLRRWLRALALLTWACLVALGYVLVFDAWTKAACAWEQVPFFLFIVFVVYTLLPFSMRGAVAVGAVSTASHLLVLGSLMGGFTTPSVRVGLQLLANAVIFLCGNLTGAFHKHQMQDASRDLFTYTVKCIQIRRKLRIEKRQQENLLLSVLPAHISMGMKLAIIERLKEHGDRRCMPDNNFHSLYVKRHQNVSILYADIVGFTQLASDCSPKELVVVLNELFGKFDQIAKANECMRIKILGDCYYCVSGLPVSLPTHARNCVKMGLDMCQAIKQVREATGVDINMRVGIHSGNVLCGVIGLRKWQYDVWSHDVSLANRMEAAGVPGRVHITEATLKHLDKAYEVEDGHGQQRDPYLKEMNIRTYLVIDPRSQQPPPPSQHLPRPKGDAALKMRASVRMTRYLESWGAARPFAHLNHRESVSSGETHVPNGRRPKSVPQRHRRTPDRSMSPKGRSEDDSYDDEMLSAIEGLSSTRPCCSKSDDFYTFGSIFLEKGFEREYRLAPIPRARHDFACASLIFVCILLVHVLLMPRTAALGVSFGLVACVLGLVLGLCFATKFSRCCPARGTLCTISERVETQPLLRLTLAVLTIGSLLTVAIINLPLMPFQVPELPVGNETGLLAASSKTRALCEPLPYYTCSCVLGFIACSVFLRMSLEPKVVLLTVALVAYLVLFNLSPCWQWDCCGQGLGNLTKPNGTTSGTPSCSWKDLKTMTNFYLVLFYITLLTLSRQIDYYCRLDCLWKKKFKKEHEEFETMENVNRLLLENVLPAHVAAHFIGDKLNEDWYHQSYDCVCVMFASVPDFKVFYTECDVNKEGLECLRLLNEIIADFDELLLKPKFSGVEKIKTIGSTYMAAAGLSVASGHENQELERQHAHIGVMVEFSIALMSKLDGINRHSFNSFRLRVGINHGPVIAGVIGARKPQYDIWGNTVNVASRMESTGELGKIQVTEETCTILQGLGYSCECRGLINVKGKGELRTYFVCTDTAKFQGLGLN
T1 sequence (P63092 2-394 Q227L partner): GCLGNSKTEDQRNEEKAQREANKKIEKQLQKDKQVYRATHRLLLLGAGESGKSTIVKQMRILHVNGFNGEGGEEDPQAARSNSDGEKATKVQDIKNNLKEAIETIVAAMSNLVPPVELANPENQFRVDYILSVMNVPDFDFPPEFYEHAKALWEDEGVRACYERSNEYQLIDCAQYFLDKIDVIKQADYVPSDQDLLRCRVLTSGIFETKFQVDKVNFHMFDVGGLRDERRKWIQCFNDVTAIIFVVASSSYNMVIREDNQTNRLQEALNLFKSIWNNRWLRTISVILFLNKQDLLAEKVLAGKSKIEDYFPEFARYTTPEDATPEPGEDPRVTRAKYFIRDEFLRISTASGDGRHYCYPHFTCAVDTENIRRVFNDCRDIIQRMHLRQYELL

CCCCCCCC/C=C\CCCCCCCC(=O)O [Oleic acid, Oleic ((9Z)-octadecenoic) acid]
Effect of lipid on 300 nM Gsα-stimulated mAC7 (20 µM, in words): significantly enhanced
mAC7 activity [%] (100% = 300nM Gsα stimulation) (Figure 5 B, oleic acid 0.3 µM): 100%
EC50 (enhancement of 300 nM Gsα-stimulated activity): 6.7 µM
